What all share (format): functional
For assay [1], the system named is Mycolicibacterium smegmatis. Briefly: Average value of incorporation for recognition of mycobacterial arabinosyl transferase in experiments 1, 2 and 3 (%incorporation = 14).
Assay [2] relates to Mycolicibacterium smegmatis. Briefly: Tested for recognition of mycobacterial arabinosyl transferase incubated with 14C1 labeled decaprenol arabinofuranosyl phosphate in the presence of membrane extracts from Mycobacterium smegmatis in experiment 3 (%incorporation = 12.4).
Assay [3] relates to Mycolicibacterium smegmatis. In words: Tested for recognition of mycobacterial arabinosyl transferase incubated with 14C1 labeled decaprenol arabinofuranosyl phosphate in the presence of membrane extracts from Mycobacterium smegmatis in experiment 1 (%incorporation = 13.8).
The test system of assay [4] is Mycolicibacterium smegmatis. In words: Tested for recognition of mycobacterial arabinosyl transferase incubated with 14C1 labeled decaprenol arabinofuranosyl phosphate in the presence of membrane extracts from Mycobacterium smegmatis in experiment 2 (%incorporation = 15.8).
In assay [5] the test system is Mycolicibacterium smegmatis. Briefly: Tested for recognition of mycobacterial arabinosyl transferase incubated with 14C1 labeled decaprenol arabinofuranosyl phosphate in the presence of membrane extracts from Mycobacterium smegmatis in experiment 1 (%incorporation = 16.4).
The test system of assay [6] is Mycolicibacterium smegmatis. Briefly: Average value of incorporation for recognition of mycobacterial arabinosyl transferase in experiments 1 and 2 (%incorporation = 16.1).
Assay [7] relates to Mycolicibacterium smegmatis. In words: Tested for recognition of mycobacterial arabinosyl transferase incubated with 14C1 labeled decaprenol arabinofuranosyl phosphate in the presence of membrane extracts from Mycobacterium smegmatis in experiment 2 (%incorporation = 15.2).
Assay [8] concerns Mycolicibacterium smegmatis. In words: Average value of incorporation for recognition of mycobacterial arabinosyl transferase in experiments 1, 2 and 3 (%incorporation = 12.7).
Assay [9] relates to Mycolicibacterium smegmatis. Briefly: Tested for recognition of mycobacterial arabinosyl transferase incubated with 14C1 labeled decaprenol arabinofuranosyl phosphate in the presence of membrane extracts from Mycobacterium smegmatis in experiment 1 (%incorporation = 12.9).
The subject of assay [10] is Mycolicibacterium smegmatis. Briefly: Tested for recognition of mycobacterial arabinosyl transferase incubated with 14C1 labeled decaprenol arabinofuranosyl phosphate in the presence of membrane extracts from Mycobacterium smegmatis in experiment 2 (%incorporation = 12.9).
The test system of assay [11] is Mycolicibacterium smegmatis. In words: Tested for recognition of mycobacterial arabinosyl transferase incubated with 14C1 labeled decaprenol arabinofuranosyl phosphate in the presence of membrane extracts from Mycobacterium smegmatis in experiment 2 (%incorporation = 16.1).
Assay [12] concerns Mycolicibacterium smegmatis. In words: Average value of incorporation for recognition of mycobacterial arabinosyl transferase in experiments 1, 2 and 3 (%incorporation = 17.2).
In assay [13] the test system is Mycolicibacterium smegmatis. In words: Tested for recognition of mycobacterial arabinosyl transferase incubated with 14C1 labeled decaprenol arabinofuranosyl phosphate in the presence of membrane extracts from Mycobacterium smegmatis in experiment 1 (%incorporation = 19.1).
The subject of assay [14] is Mycolicibacterium smegmatis. Briefly: Tested for recognition of mycobacterial arabinosyl transferase incubated with 14C1 labeled decaprenol arabinofuranosyl phosphate in the presence of membrane extracts from Mycobacterium smegmatis in experiment 3 (%incorporation = 16.4).
Assay [15] relates to Mycolicibacterium smegmatis. Briefly: Tested for recognition of mycobacterial arabinosyl transferase incubated with 14C1 labeled decaprenol arabinofuranosyl phosphate in the presence of membrane extracts from Mycobacterium smegmatis in experiment 1 (%incorporation = 21.9).
Assay [16] has as its system Mycolicibacterium smegmatis. Briefly: Tested for recognition of mycobacterial arabinosyl transferase incubated with 14C1 labeled decaprenol arabinofuranosyl phosphate in the presence of membrane extracts from Mycobacterium smegmatis in experiment 3 (%incorporation = 18.2).
Assay [17] deals with Mycolicibacterium smegmatis. Briefly: Average value of incorporation for recognition of mycobacterial arabinosyl transferase in experiments 1, 2 and 3 (%incorporation = 20.8).
Assay [18] deals with Mycolicibacterium smegmatis. In words: Tested for recognition of mycobacterial arabinosyl transferase incubated with 14C1 labeled decaprenol arabinofuranosyl phosphate in the presence of membrane extracts from Mycobacterium smegmatis in experiment 2 (%incorporation = 22.5).

The values that follow come from ChEMBL document CHEMBL1130757, “Synthetic arabinofuranosyl oligosaccharides as mycobacterial arabinosyltransferase substrates” (1998).

For `CO[C@H]1O[C@H](CO[C@H]2O[C@H](CO)[C@@H](O[C@H]3O[C@H](CO)[C@@H](O)[C@@H]3O)[C@@H]2O)[C@@H](O)[C@@H]1O`, the Average in assay [1] was determined as 5600 c.p.m. In addition, the Incorporation was determined as 4960 c.p.m in assay [2], 5513 c.p.m in [3] and 6326 c.p.m in [4].
For the molecule `CO[C@H]1O[C@H](CO[C@H]2O[C@H](CO[C@H]3O[C@H](CO)[C@@H](O)[C@@H]3O)[C@@H](O[C@H]3O[C@H](CO)[C@@H](O)[C@@H]3O)[C@@H]2O)[C@@H](O)[C@@H]1O`, the results for the Incorporation in assay [5] and in assay [7] were 6540 c.p.m and 6092 c.p.m, respectively. The molecule also yielded an Average in assay [6] of 6433 c.p.m.
With `CO[C@H]1O[C@H](CO[C@H]2O[C@H](CO)[C@@H](O)[C@@H]2O)[C@@H](O)[C@@H]1O`, in [8], the Average was 5095 c.p.m. The results for the Incorporation in assay [9], in [2] and in assay [10] were 5148 c.p.m, 4990 c.p.m and 5148 c.p.m, respectively.
For the molecule `CO[C@H]1O[C@H](CO)[C@@H](O[C@H]2O[C@H](CO)[C@@H](O)[C@@H]2O)[C@@H]1O`, the Incorporation was determined as 6432 c.p.m in assay [11], 7632 c.p.m in assay [13] and 6563 c.p.m in [14]. The Average in assay [12] is listed as 6876 c.p.m.
In the case of `CO[C@H]1O[C@H](CO[C@H]2O[C@H](CO[C@H]3O[C@H](CO)[C@@H](O)[C@@H]3O)[C@@H](O)[C@@H]2O)[C@@H](O)[C@@H]1O`, the Incorporation in assay [15] was found to be 8732 c.p.m; in assay [16], 7271 c.p.m; in [18] it was 9011 c.p.m. Further, the Average in [17] is 8338 c.p.m.
